Residues, ends and D or L forms follow the SMILES beside them. *: point of attachment. Cbz = O=C(OCc1ccccc1)*
Key:
MST1 = biological target: T1, MST1 (Homo sapiens, UniProt Q13043, K59R); assay: staurosporine stimulation, MST1 phosphorylation by immunoblot; format: cell-based; details: MST1 K59R expressing HSMM^PF+H+M cells, 1 μM STS, 1 hour
T1 construct: expressed in transfected cells; host or cells: HSMM^PF+H+M cells (human skeletal muscle myoblasts expressing PAX3-FOXO1, hTERT, MycN), with or without RASSF4 shRNA
T1 sequence (Q13043 1-487 K59R): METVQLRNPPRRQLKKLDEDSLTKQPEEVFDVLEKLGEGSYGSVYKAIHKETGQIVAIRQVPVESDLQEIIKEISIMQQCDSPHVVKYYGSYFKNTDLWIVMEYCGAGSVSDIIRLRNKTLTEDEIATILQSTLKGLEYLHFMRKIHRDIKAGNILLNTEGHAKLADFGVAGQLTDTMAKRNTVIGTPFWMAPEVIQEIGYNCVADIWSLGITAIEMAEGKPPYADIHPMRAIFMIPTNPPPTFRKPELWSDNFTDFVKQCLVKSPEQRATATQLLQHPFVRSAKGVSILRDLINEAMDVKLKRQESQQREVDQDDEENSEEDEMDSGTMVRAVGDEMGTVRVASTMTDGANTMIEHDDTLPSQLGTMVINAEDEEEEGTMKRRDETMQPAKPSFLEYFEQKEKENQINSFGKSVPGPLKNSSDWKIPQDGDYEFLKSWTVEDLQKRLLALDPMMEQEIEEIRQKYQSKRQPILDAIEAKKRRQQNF
Protocol: (A) RASSF4 deficiency causes MST1 phosphorylation and cleavage upon staurosporine (STS) treatment. Cells expressing FLAG-MST1 K59R were treated for 1 hour with 1 μM STS and examined for phosphor-MST1/2 and total MST1 by immunoblot. (B) Upon 1 hour treatment with 1 μM STS, RASSF4-deficient aRMS cells display higher cleaved caspase 3 as measured by immunoblot. In A and B, actin was used as a loading control.
However, even without the ability to activate downstream signaling, MST1 K59R can still be regulated like wild-type MST1 through phosphorylation by upstream kinases and caspase cleavage. Since endogenous phospho-MST1 levels and MST1 cleavage products were in low abundance in aRMS cells and were difficult to detect, we used cells expressing MST1K59R to boost MST1 expression, while maintaining cell viability. We stimulated cells with staurosporine (STS), a well-established activator of MST1, and examined the role of RASSF4 in MST1 phosphorylation and cleavage (Graves et al., J. Biol. Chem 276:14909-14915 (2001)). […] This is the reported size of the MST1 cleavage fragment believed to be regulated by caspases (Graves et al. (2001); Cheung et al., Cell 113:507-517 (2003); Praskova et al., Biochem J. 381:453-462 (2004)). […]

YAP = assay: pharmacological block of YAP protein turnover in RASSF4-deficient aRMS cells; format: cell-based, human; details: RASSF4-deficient aRMS cells versus control; data not shown
Source text: Finally, we examined whether there was a connection between RASSF4 and YAP. […] Since YAP protein is turned over by sequential phosphorylation and ubiquitin-mediated degradation (Zhao et al., Genes Dev. 24:72-85 (2010)), we attempted to pharmacologically block YAP protein turnover in RASSF4-deficient cells using MG132 or IC 261. […] When examined at the transcriptional level, we observed a decreasing trend in YAP mRNA levels that only reached significance with one RASSF4 shRNA. Since RASSF4 loss of function was causing growth arrest and senescence, we reasoned that these effects on YAP could be caused by the growth arrest itself and RASSF4 loss. […] Instead, cells expressing YAP S127A and RASSF4 shRNA had more pronounced mitotic defects (data not shown). Therefore, while we cannot identify a clear connection between RASSF4 and YAP in aRMS at this time, Hippo signaling is clearly dysregulated at multiple levels in RMS through RASSF4-MST1 and YAP-mediated mechanisms (FIG. 7F).

LATS1 = assay: nocodazole treatment, LATS1 phosphorylation by immunoblot; format: cell-based, human; details: nocodazole-treated HSMM^PF+H+M cells, control and RASSF4-knockdown
[1] = biological target: Yki/YAP and transcriptional coactivator TEAD/TEF transcription factors (Homo sapiens, UniProt P46937); details: identified in a screen; cited from earlier work
Chain of Yki/YAP and transcriptional coactivator TEAD/TEF transcription factors (P46937 whole entry): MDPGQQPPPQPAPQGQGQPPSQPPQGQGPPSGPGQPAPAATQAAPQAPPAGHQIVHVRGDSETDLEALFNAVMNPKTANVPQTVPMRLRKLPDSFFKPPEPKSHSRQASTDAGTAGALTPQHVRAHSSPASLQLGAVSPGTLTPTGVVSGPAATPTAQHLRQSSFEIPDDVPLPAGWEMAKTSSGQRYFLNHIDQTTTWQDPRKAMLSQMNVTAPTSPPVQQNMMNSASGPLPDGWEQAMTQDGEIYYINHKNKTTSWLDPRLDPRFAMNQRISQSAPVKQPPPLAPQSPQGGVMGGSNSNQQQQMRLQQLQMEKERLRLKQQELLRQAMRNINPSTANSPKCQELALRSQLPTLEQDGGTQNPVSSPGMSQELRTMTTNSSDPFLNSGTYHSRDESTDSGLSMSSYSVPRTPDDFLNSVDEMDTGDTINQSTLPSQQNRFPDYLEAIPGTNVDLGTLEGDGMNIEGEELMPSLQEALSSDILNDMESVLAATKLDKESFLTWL

CN[C@@H]1C[C@H]2O[C@@](C)([C@@H]1OC)n1c3ccccc3c3c4c(c5c6ccccc6n2c5c31)C(=O)NC4 [staurosporine]
phosphorylation of full-length MST1 (MST1): increased phosphorylation of full-length MST1

COc1cc(OC)c(C=C2C(O)=Nc3ccccc32)c(OC)c1 [IC 261]
phospho-YAP and total YAP levels (YAP): still lower

COC(=O)Nc1nc2ccc(C(=O)c3cccs3)cc2[nH]1 [nocodazole]
phosphorylated LATS1 (LATS1): reduction in phosphorylated LATS1

verteporfin
disruption of physical interactions between Yki/YAP and TEAD/TEF [1]: capable of disrupting physical interactions

CC(C)C[C@@H](C=O)NC(=O)[C@H](CC(C)C)NC(=O)[C@H](CC(C)C)NC(=O)OCc1ccccc1 [MG132] (Cbz-Leu-Leu-Leu-aldehyde)
phospho-YAP and total YAP levels (YAP): still lower

Source: patent publication US20160287575A1, “COMPOSITIONS AND METHODS FOR THE TREATMENT OF DISEASES INVOLVING HIPPO PATHWAY” (DUKE UNIVERSITY, priority 2013, published 2016)
